The compounds below were run on HEK293T cells carrying the ATF4 luciferase reporter (assay: ATF4-Luc assay (in vitro model of vanishing white matter disease)). Conditions: Homo sapiens, HEK-293T; HEK293T cells with ATF4 luciferase reporter, 1 μg/mL tunicamycin, 7 hours, One Glo luminescence.
Assay type: cell-based
Procedure, shortened: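 Compound at 200 nM and tunicamycin at 1 μg/mL were given together for 7 h to HEK293T cells stably transduced with an ATF4 5′-UTR-driven firefly luciferase reporter. Read-out by luminescence, reported as EC50.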

Row | SMILES | EC50 [nM]
1 | O=C(NC12CC(NC(=O)C3COc4cc(Cl)c(Cl)cc4O3)(C1)C2)c1ccc(OC(F)(F)F)cn1 (stereo not drawn) [Compound 132, N-{3-[(6,7-dichloro-2,3-dihydro-1,4-benzodioxine-2-carbonyl)amino]bicyclo[1.1.1]pentan-1-yl}-5-(trifluoromethoxy)pyridine-2-carboxamide] | 50 to 250
2 | O=C(COc1ccc(Cl)c(F)c1)NC12CCC(NC(=O)C3CCc4cc(Cl)ccc4O3)(CC1)[C@@H](O)C2 (stereo partly drawn) [Compound 203, 6-chloro-N-{(2S)-4-[2-(4-chloro-3-fluorophenoxy)acetamido]-2-hydroxybicyclo[2.2.2]octan-1-yl}-3,4-dihydro-2H-1-benzopyran-2-carboxamide] | < 10
3 | O=C(COc1ccc(Cl)c(F)c1)NC12CC(NC(=O)[C@@H]3CN(C(=O)[C@H]4C[C@H]4F)c4cc(Cl)ccc4O3)(C1)C2 (single isomer, unassigned) [Compound 144] | 50 to 250
4 | O=C(COc1ccc(Cl)c(F)c1)NC12CC(NC(=O)C3CN(C(=O)C(F)(F)C(F)F)c4cc(Cl)ccc4O3)(C1)C2 (stereo not drawn) [Compound 161, 6-chloro-N-{3-[2-(4-chloro-3-fluorophenoxy)acetamido]bicyclo[1.1.1]pentan-1-yl}-4-(2,2,3,3-tetrafluoropropanoyl)-3,4-dihydro-2H-1,4-benzoxazine-2-carboxamide] | < 10
5 | O=C(COc1ccc(Cl)c(F)c1)NC12CC(NC(=O)C3CN(C(=O)[C@@H]4C[C@@H]4F)c4cc(Cl)ccc4O3)(C1)C2 (stereo partly drawn) [Compound 175, 6-chloro-N-{3-[2-(4-chloro-3-fluorophenoxy)acetamido]bicyclo[1.1.1]pentan-1-yl}-4-[(1S,2S)-2-fluorocyclopropane-1-carbonyl]-3,4-dihydro-2H-1,4-benzoxazine-2-carboxamide] | 250 to 500
6 | O=C(COc1ccc(Cl)c(F)c1)NC12CC(NC(=O)C3CN(C(=O)C(F)(F)C(F)(F)C(F)(F)F)c4cc(Cl)ccc4O3)(C1)C2 (stereo not drawn) [Compound 159, 6-chloro-N-{3-[2-(4-chloro-3-fluorophenoxy)acetamido]bicyclo[1.1.1]pentan-1-yl}-4-(2,2,3,3,4,4,4-heptafluorobutanoyl)-3,4-dihydro-2H-1,4-benzoxazine-2-carboxamide] | < 10
7 | COCCOCC(=O)N1CC(C(=O)NC23CC(NC(=O)COc4ccc(Cl)c(F)c4)(C2)C3)Oc2ccc(Cl)cc21 (stereo not drawn) [Compound 156, 6-chloro-N-{3-[2-(4-chloro-3-fluorophenoxy)acetamido]bicyclo[1.1.1]pentan-1-yl}-4-[(2-methoxyethoxy)acetyl]-3,4-dihydro-2H-1,4-benzoxazine-2-carboxamide] | 10 to 50
8 | O=C(COc1ccc(Cl)c(F)c1)NC12CCC(NC(=O)[C@@H]3CCc4cc(F)ccc4O3)(CC1)[C@@H](O)C2 [Compound 201, (2S)—N-{(2S)-4-[2-(4-chloro-3-fluorophenoxy)acetamido]-2-hydroxybicyclo[2.2.2]octan-1-yl}-6-fluoro-3,4-dihydro-2H-1-benzopyran-2-carboxamide] | < 10
9 | O=C(COc1ccc(Cl)c(F)c1)NC12CCC(NC(=O)[C@H]3COc4cc(Cl)ccc4O3)(CC1)C[C@@H]2O [Compound 115, (2R)-6-chloro-N-{(3S)-4-[2-(4-chloro-3-fluorophenoxy)acetamido]-3-hydroxybicyclo[2.2.2]octan-1-yl}-2,3-dihydro-1,4-benzodioxine-2-carboxamide] | < 10
10 | CN1CC(C(=O)NC23CC(NC(=O)COc4ccc(Cl)c(F)c4)(C2)C3)Oc2ccc(Cl)cc21 (stereo not drawn) [Compound 112, 6-chloro-N-{3-[2-(4-chloro-3-fluorophenoxy)acetamido]bicyclo[1.1.1]pentan-1-yl}-4-methyl-3,4-dihydro-2H-1,4-benzoxazine-2-carboxamide] | < 10
11 | COCC(=O)N1CC(C(=O)NC23CC(NC(=O)COc4ccc(Cl)c(F)c4)(C2)C3)Oc2ccc(Cl)cc21 (stereo not drawn) [Compound 158, 6-chloro-N-{3-[2-(4-chloro-3-fluorophenoxy)acetamido]bicyclo[1.1.1]pentan-1-yl}-4-(methoxyacetyl)-3,4-dihydro-2H-1,4-benzoxazine-2-carboxamide] | 10 to 50
12 | O=C(COc1ccc(Cl)c(F)c1)NC12CC(NC(=O)C3CCc4cc(Cl)ccc4O3)(C1)C2 (stereo not drawn) [Compound 204, 6-chloro-N-{3-[2-(4-chloro-3-fluorophenoxy)acetamido]bicyclo[1.1.1]pentan-1-yl}-3,4-dihydro-2H-1-benzopyran-2-carboxamide] | < 10
13 | CS(=O)(=O)CCN1CC(C(=O)NC23CC(NC(=O)COc4ccc(Cl)c(F)c4)(C2)C3)Oc2ccc(Cl)cc21 (stereo not drawn) [Compound 180, 6-chloro-N-{3-[2-(4-chloro-3-fluorophenoxy)acetamido]bicyclo[1.1.1]pentan-1-yl}-4-[2-(methanesulfonyl)ethyl]-3,4-dihydro-2H-1,4-benzoxazine-2-carboxamide] | 10 to 50
14 | O=C(COc1ccc(Cl)c(F)c1)NC12CC(NC(=O)C3CN(C(=O)C4CC4(F)F)c4cc(Cl)ccc4O3)(C1)C2 (stereo not drawn) [Compound 176, 6-chloro-N-{3-[2-(4-chloro-3-fluorophenoxy)acetamido]bicyclo[1.1.1]pentan-1-yl}-4-(2,2-difluorocyclopropane-1-carbonyl)-3,4-dihydro-2H-1,4-benzoxazine-2-carboxamide] | 250 to 500
15 | O=C(COc1ccc(Cl)c(F)c1)NC12CC(NC(=O)C3CNc4cc(Cl)ccc4O3)(C1)C2 (stereo not drawn) [Compound 113, 6-chloro-N-{3-[2-(4-chloro-3-fluorophenoxy)acetamido]bicyclo[1.1.1]pentan-1-yl}-3,4-dihydro-2H-1,4-benzoxazine-2-carboxamide] | < 10
16 | CSCCC(=O)N1CC(C(=O)NC23CC(NC(=O)COc4ccc(Cl)c(F)c4)(C2)C3)Oc2ccc(Cl)cc21 (stereo not drawn) [Compound 162, 6-chloro-N-{3-[2-(4-chloro-3-fluorophenoxy)acetamido]bicyclo[1.1.1]pentan-1-yl}-4-[3-(methylsulfanyl)propanoyl]-3,4-dihydro-2H-1,4-benzoxazine-2-carboxamide] | 50 to 250
17 | O=C(COc1ccc(Cl)c(F)c1)NC12CCC(NC(=O)C3Cc4ccccc4O3)(CC1)C(O)C2 (stereo not drawn) [Compound 129, N-{4-[2-(4-chloro-3-fluorophenoxy)acetamido]-2-hydroxybicyclo[2.2.2]octan-1-yl}-2,3-dihydro-1-benzofuran-2-carboxamide] | 250 to 500
18 | O=C(COc1ccc(Cl)c(F)c1)NC12CC(NC(=O)C3CC(=O)c4cc(Cl)ccc4O3)(C1)C2 (stereo not drawn) [Compound 186, 6-chloro-N-{3-[2-(4-chloro-3-fluorophenoxy)acetamido]bicyclo[1.1.1]pentan-1-yl}-4-oxo-3,4-dihydro-2H-1-benzopyran-2-carboxamide] | < 10

From patent publication US20210169892A1, “MODULATORS OF THE INTEGRATED STRESS PATHWAY” (Calico Life Sciences LLC, priority 2017, published 2021)
